ChEMBL document CHEMBL1134007, “Synthesis and structure-activity relationships of 1-phenylpyrazoles as xanthine oxidase inhibitors” (Bioorg Med Chem Lett, 2001)

Legend:
[1] = molecular target: T1, Xanthine dehydrogenase/oxidase (Bos taurus, UniProt P80457); assay: In vitro percent inhibition against Xanthine oxidase at concentration of 10000 nmol/L
[2] = molecular target: T1, Xanthine dehydrogenase/oxidase; assay: In vitro inhibitory concentration against Xanthine oxidase
[3] = system: Rattus norvegicus; assay: Tested for hypouricemic effect in potassium oxonate (uricase inhibitor) treated (po)rats for 0-6 hr expressed as ED20; assay type: functional
[4] = system: Rattus norvegicus; assay: Tested for hypouricemic effect in potassium oxonate (uricase inhibitor) treated (po) rats for 0-24 hr expressed as ED20; assay type: functional
[5] = system: Rattus norvegicus; assay: Tested for hypouricemic effect in potassium oxonate (uricase inhibitor) treated (po) rats for 0-6 hr expressed as ED20; assay type: functional
[6] = Tmax determined after 0.3 mg/kg oral administration in potassium oxonate treated rats; assay type: ADME, organism-based; parameters: dose 0.3 mg/kg, route oral; conditions: rat, in vivo
[7] = In vivo CL/F determined; assay type: ADME, organism-based; conditions: rat
[8] = Tmax determined after 3 mg/kg oral administration in potassium oxonate treated rats; assay type: ADME, organism-based; parameters: dose 3 mg/kg, route oral; conditions: rat, in vivo

T1 sequence (P80457 whole entry): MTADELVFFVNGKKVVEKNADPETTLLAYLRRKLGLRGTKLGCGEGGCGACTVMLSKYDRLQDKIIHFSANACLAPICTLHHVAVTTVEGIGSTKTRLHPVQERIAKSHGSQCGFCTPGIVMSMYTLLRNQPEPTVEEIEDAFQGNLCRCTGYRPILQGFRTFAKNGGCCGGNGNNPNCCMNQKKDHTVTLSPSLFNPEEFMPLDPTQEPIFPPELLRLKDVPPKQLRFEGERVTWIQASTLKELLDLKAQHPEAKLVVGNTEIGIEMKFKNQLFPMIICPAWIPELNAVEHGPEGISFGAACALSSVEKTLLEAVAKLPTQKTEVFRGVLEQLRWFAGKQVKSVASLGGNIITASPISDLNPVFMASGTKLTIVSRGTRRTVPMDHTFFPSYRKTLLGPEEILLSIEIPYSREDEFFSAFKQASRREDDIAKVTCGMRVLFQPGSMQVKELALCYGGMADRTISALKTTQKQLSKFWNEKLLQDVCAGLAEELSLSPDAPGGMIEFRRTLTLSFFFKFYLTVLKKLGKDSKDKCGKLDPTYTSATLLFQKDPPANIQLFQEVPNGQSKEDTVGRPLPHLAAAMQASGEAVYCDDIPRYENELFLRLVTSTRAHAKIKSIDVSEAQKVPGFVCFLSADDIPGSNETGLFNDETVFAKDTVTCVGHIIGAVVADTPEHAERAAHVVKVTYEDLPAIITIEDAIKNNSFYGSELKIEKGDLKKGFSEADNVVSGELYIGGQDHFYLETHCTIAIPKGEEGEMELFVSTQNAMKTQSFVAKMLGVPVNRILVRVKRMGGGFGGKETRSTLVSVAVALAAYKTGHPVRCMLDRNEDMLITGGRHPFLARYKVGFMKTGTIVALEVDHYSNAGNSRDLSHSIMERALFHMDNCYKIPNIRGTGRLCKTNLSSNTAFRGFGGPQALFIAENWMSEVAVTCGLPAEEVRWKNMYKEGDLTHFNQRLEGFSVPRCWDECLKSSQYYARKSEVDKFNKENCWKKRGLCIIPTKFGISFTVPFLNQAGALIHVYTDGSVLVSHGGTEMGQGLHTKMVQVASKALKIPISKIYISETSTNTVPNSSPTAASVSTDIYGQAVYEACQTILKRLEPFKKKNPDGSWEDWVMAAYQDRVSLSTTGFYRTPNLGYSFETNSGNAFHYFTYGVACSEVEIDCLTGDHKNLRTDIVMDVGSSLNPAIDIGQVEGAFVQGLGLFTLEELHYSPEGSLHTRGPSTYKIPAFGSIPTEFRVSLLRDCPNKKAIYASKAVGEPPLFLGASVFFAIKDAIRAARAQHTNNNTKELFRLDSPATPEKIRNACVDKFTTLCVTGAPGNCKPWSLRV

| SMILES | inhibition at 10 µM [1] [%] | IC50 [2] [nM] | ED20 [4] [mg/kg] | further results |
| --- | --- | --- | --- | --- |
| O=C(O)c1cnn(-c2ccc(Cl)cc2)c1 | < 50 |  |  |  |
| COc1ccc(-n2cc(C(=O)O)cn2)cc1C#N |  | 460 |  |  |
| Oc1ncnc2[nH]ncc12 [ALLOPURINOL] |  |  | > 10 | ED20 [3]: 3.5 mg/kg |
| COc1ccc(-n2cc(C(=O)O)cn2)cc1 | < 50 |  |  |  |
| CC(C)COc1ccc(-n2cc(C(=O)O)cn2)cc1C#N |  |  | > 10 | ED20 [5]: 2.5 mg/kg; Tmax [6]: 1.1 h; CL/F [7]: 9.83 mL/min/kg; Tmax [8]: 1.3 h |
| N#Cc1cc(-n2cc(C(=O)O)cn2)ccc1OCC(=O)O |  | 1500 |  |  |
| CC(C)COc1ccc(-n2cc(C(=O)O)cn2)cc1[N+](=O)[O-] |  | 33 |  |  |
| CCOC(=O)c1cnn(-c2ccc(OCC(C)C)c(C#N)c2)c1 | < 50 |  |  |  |
| CC(C)(C)COc1ccc(-n2cc(C(=O)O)cn2)cc1C#N |  |  | 1.4 | ED20 [5]: 0.55 mg/kg; Tmax [6]: 3.5 h; CL/F [7]: 2 mL/min/kg; Tmax [8]: 3.5 h |
| CN(C)CCOc1ccc(-n2cc(C(=O)O)cn2)cc1C#N |  | 700 |  |  |
